The series in a line: Ocular iontophoretic delivery of MPA in rabbits; amounts in eye tissues by HPLC. Particulars: rabbit eye; iontophoresis 3 mA for 20 minutes, 20 μL of 0.6 M MPA in 1% agarose gel, 0.07 cm^2; 15 minutes after delivery. Type of series: in vivo, New Zealand white rabbits. The protocol:
Three New Zealand white rabbits were each fitted with ocular iontophoretic device on one eye. Each device contained 20 μL of 0.6 M mycophenolic acid (MPA) in 1% agarose gel. A vacuum was provided between the eyes of the rabbits and the ocular iontophoretic device by withdrawing 0.2 cc from the space therebetween. MPA was iontophoretically delivered from the cathodes of the devices on the conjunctiva/sclera near the limbus and the upper eyelid using constant current control from standard iontophoretic dose controller. The MPA was iontophoretically delivered through a surface area of 0.07 cm^2 at 3 mA for 20 minutes. The anode electrode was attached on the rabbit's ear, opposite the treatment eye. Rabbits were euthanized at 15 minutes following completion of the iontophoretic delivery. Treatment eyes were dissected and the amounts of MPA in the conjunctiva, sclera, retina, and vitreous were determined using HPLC assay.

As to `COc1c(C)c2c(c(O)c1C/C=C(\C)CCC(=O)O)C(=O)OC2` [MPA, mycophenolic acid], the “MPA Amount, Conjunctiva” value came out at 30.45 µg; the “MPA Amount, Retina” value stood at 1.60 µg; the “MPA Amount, Sclera” value came out at 20.65 µg; the “MPA Amount, Total (combined total for all of the dissections)” value came to 60.75 µg. In addition, the “MPA Amount, Vitreous” value came out at 2.45 µg.

(Values after patent US20070082841A1, “Ocular administration of immunosuppressive agents” (Aciont, Inc., priority 2005, published 2007).)
